Measured values: patent publication US20240270786A1, “STEROID COMPOUNDS” (Epirium Bio Inc., priority 2022, published 2024)

Tests used:
[1] = system: mitochondrial ATP synthase; assay: ATP synthesis (oxygen consumption, Seahorse XF96) in fresh heart mitochondria; assay type: biochemical, mouse; details: Complex I or Complex II substrates (FIG. 1, FIG. 2)
Description: (§1) To assess whether the fraction of synthetic and reverse hydrolytic activities of mitochondrial ATP synthase can be measured in the same preparation, a protocol was developed to monitor changes in oxygen consumption and proton release in response to changes in mitochondrial ATP synthase activity. The proton released and the concomitant changes in the pH can be monitored using the ECAR (extracellular acidification) channel in the Agilent Seahorse XF analyzer using isolated mitochondria, to ensure that the changes in pH cannot be attributed to glycolysis or other contributors to ECAR.
Mice were anesthetized with isoflurane followed by a cervical dislocation, and the heart was immediately removed and placed in ice cold relaxation buffer (5 mM sodium pyrophosphate, 100 mM KCl, 5 mM EGTA, 5 mM HEPES; pH 7.4). […] The mitochondrial pellets were re-suspended in ice cold HES buffer and mitochondrial protein was measured with a BCA assay (Pierce). […]
Oxygen consumption was measured in isolated fresh intact mitochondria from mouse heart, as oxygen consumption is linked to maximal ATP synthesis and proton release when mitochondria are respiring either in the presence of substrates and ADP (ATP synthesizing mitochondria or state 3) or in the presence of substrates but not ADP (state 4). […]

[2] = system: mitochondrial ATP synthase; assay: ATP hydrolysis (acidification, Seahorse XF96) in fresh heart mitochondria; assay type: biochemical, mouse; details: fresh heart mitochondria (FIG. 1, FIG. 2)
Description: as §1
Mice were anesthetized with isoflurane followed by a cervical dislocation, and the heart was immediately removed and placed in ice cold relaxation buffer (5 mM sodium pyrophosphate, 100 mM KCl, 5 mM EGTA, 5 mM HEPES; pH 7.4). The heart was squeezed with tweezers to remove blood, minced with scissors, and then placed in a glass-glass Dounce homogenizer with 3 mL of HES homogenization buffer (250 mM sucrose, 5 mM HEPES, 1 mM EDTA; pH to 7.2, adjusted with KOH). The heart tissue was homogenized first with the loose pestle and followed by the tight pestle. The homogenized tissue was placed in a pre-chilled 15 mL conical tube and centrifuged at 900×g (4° C.) for 10 minutes (min). The supernatant was removed, placed in a new tube and centrifuged again at 900×g for 10 min. The supernatant was then transferred to 2 mL microcentrifuge tubes and centrifuged at 10,000×g (4° C.) for 10 min. The mitochondrial pellets were re-suspended in ice cold HES buffer and mitochondrial protein was measured with a BCA assay (Pierce). The concentrated mitochondrial pellet was stored on ice. […]
ATP hydrolysis capacity or state 4 acidification was measured using Seahorse XF96 as described in Divakaruni et al. (2018) Anal Biochem 552:60-65 and Acin-Perez et al. (2021) Life 11(9):949, in MAS (70 mM Sucrose, 220 mM Mannitol, 5 mM KH2PO4, 5 mM MgCl2, 1 mM EGTA, 2 mM HEPES; pH 7.2). […]

Row | Structure (SMILES) | ATP synthesis [1] | ATP hydrolysis [2]
1 | CN1C(=O)CC[C@@]2(C)C1=CCC1C2[C@@H](O)C[C@@]2(C)C1CC[C@@H]2NC(=O)C1CC1 (stereo partly drawn) [Compound 26, N-((4aR,5S,6aS,7S)-5-hydroxy-1,4a,6a-trimethyl-2-oxo-2,3,4,4a,4b,5,6,6a,7,8,9,9a,9b,10-tetradecahydro-1H-indeno[5,4-f]quinolin-7-yl)cyclopropanecarboxamide] | decreased ATP synthesis at the highest concentration | only mild changes in hydrolysis
2 | CNC(=O)[C@H]1CCC2C3CC=C4N(C)C(=O)CC[C@]4(C)C3[C@@H](O)C[C@@]21C (stereo partly drawn) [Compound 40, (4aR,5S,6aS)-5-hydroxy-N,1,4a,6a-tetramethyl-2-oxo-2,3,4,4a,4b,5,6,6a,7,8,9,9a,9b,10-tetradecahydro-1H-indeno[5,4-f] quinoline-7-carboxamide] |  | only mild changes in hydrolysis
